Measured values published in paper PMC4685510, “A Cell Biologist’s Field Guide to Aurora Kinase Inhibitors” (Frontiers in Oncology, 2015).

What was measured:
Test in all cases: biochemical
Format in all cases: biochemical
[1] = molecular target: 363 human kinases (including Aurora A/B/C) (Homo sapiens, UniProt P53667); details: LIMK1; for remaining activity at 0.1 µM: 100 nM; for remaining activity at 0.1 µM / remaining activity at 0.5 µM: read-out: % Enzyme Activity (relative to DMSO controls)
Description: (§1) However, the Aurora A/B selectivity ratios derived from our in vitro and in vivo data can be compared to prioritize inhibitors.

[2] = molecular target: T1, 363 human kinases (including Aurora A/B/C) (Homo sapiens, UniProt Q6PHR2); details: ULK3; for remaining activity at 0.1 µM: 100 nM; for remaining activity at 0.1 µM / remaining activity at 0.5 µM: read-out: % Enzyme Activity (relative to DMSO controls)
T1 sequence (Q6PHR2 1-472): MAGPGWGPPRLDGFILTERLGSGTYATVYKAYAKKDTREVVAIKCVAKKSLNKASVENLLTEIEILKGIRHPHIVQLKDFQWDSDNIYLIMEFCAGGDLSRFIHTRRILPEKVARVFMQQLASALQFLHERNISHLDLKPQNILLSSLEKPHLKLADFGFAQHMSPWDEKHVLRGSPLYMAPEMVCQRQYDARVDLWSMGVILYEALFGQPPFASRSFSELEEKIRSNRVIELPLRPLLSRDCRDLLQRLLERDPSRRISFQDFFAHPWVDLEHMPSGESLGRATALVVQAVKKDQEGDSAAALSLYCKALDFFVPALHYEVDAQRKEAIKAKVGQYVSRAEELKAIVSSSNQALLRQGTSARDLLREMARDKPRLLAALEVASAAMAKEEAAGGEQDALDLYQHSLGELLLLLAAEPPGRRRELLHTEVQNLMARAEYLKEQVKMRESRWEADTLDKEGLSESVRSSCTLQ
Description: as §1

[3] = molecular target: 363 human kinases (including Aurora A/B/C) (Homo sapiens, UniProt P06213); details: IR; for remaining activity at 0.1 µM: 100 nM; for remaining activity at 0.1 µM / remaining activity at 0.5 µM: read-out: % Enzyme Activity (relative to DMSO controls)
Description: as §1

[4] = molecular target: 363 human kinases (including Aurora A/B/C) (Homo sapiens, UniProt Q13882); details: BRK, [ATP] 100 µM; for remaining activity at 0.1 µM: 100 nM; for remaining activity at 0.1 µM / remaining activity at 0.5 µM: read-out: % Enzyme Activity (relative to DMSO controls)
Description: as §1

[5] = molecular target: 363 human kinases (including Aurora A/B/C) (Homo sapiens, UniProt P36894); details: ALK3/BMPR1A, [ATP] 1 µM; for remaining activity at 0.1 µM: 100 nM; for remaining activity at 0.1 µM / remaining activity at 0.5 µM: read-out: % Enzyme Activity (relative to DMSO controls)
Description: as §1

[6] = molecular target: 363 human kinases (including Aurora A/B/C) (Homo sapiens, UniProt Q9Y243); details: AKT3, [ATP] 50 µM; for remaining activity at 0.1 µM: 100 nM; for remaining activity at 0.1 µM / remaining activity at 0.5 µM: read-out: % Enzyme Activity (relative to DMSO controls)
Description: as §1

[7] = molecular target: 363 human kinases (including Aurora A/B/C) (Homo sapiens, UniProt Q9P286); details: PAK5; for remaining activity at 0.1 µM: 100 nM; for remaining activity at 0.1 µM / remaining activity at 0.5 µM: read-out: % Enzyme Activity (relative to DMSO controls)
Description: as §1

[8] = molecular target: 363 human kinases (including Aurora A/B/C) (Homo sapiens, UniProt Q9UIK4); details: DAPK2, [ATP] 5 µM; for remaining activity at 0.1 µM: 100 nM; for remaining activity at 0.1 µM / remaining activity at 0.5 µM: read-out: % Enzyme Activity (relative to DMSO controls)
Description: as §1

[9] = molecular target: 363 human kinases (including Aurora A/B/C) (Homo sapiens, UniProt P09769); details: FGR, [ATP] 50 µM; for remaining activity at 0.1 µM: 100 nM; for remaining activity at 0.1 µM / remaining activity at 0.5 µM: read-out: % Enzyme Activity (relative to DMSO controls)
Description: as §1

[10] = molecular target: 363 human kinases (including Aurora A/B/C) (Homo sapiens, UniProt Q02763); details: TIE2/TEK; for remaining activity at 0.1 µM: 100 nM; for remaining activity at 0.1 µM / remaining activity at 0.5 µM: read-out: % Enzyme Activity (relative to DMSO controls)
Description: as §1

[11] = molecular target: T2, 363 human kinases (including Aurora A/B/C) (Homo sapiens, UniProt P29322); details: EPHA8, [ATP] 100 µM; for remaining activity at 0.1 µM: 100 nM; for remaining activity at 0.1 µM / remaining activity at 0.5 µM: read-out: % Enzyme Activity (relative to DMSO controls)
T2 sequence (P29322 28-1005): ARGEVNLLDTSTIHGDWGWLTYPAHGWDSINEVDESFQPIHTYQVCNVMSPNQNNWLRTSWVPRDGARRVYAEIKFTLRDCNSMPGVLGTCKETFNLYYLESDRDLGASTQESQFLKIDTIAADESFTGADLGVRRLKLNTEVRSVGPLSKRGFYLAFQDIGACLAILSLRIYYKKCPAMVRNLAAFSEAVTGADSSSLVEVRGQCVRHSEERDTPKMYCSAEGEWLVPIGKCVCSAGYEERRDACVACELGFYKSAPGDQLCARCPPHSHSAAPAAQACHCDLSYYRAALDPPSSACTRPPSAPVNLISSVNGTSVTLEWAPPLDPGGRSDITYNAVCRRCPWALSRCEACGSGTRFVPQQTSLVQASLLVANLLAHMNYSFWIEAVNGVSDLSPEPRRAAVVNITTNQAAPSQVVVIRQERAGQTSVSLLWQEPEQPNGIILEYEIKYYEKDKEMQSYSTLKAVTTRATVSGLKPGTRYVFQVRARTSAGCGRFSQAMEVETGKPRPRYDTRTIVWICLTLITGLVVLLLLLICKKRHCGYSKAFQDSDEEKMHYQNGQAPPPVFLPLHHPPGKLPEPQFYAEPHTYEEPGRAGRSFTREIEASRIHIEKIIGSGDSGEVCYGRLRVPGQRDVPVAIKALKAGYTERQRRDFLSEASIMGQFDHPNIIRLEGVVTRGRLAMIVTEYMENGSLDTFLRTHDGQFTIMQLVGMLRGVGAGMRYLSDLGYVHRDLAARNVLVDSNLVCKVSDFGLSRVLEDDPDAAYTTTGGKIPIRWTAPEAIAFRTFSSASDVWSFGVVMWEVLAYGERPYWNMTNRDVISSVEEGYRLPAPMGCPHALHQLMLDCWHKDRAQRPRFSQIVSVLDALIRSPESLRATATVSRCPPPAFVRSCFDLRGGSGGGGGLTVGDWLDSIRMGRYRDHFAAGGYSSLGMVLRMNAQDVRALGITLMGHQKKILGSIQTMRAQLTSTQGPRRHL
Description: as §1

[12] = molecular target: 363 human kinases (including Aurora A/B/C) (Homo sapiens, UniProt Q9Y463); details: DYRK1B, [ATP] 20 µM; for remaining activity at 0.1 µM: 100 nM; for remaining activity at 0.1 µM / remaining activity at 0.5 µM: read-out: % Enzyme Activity (relative to DMSO controls)
Description: as §1

[13] = molecular target: 363 human kinases (including Aurora A/B/C) (Homo sapiens, UniProt P17948); details: FLT1/VEGFR1, [ATP] 2.5 µM; for remaining activity at 0.1 µM: 100 nM; for remaining activity at 0.1 µM / remaining activity at 0.5 µM: read-out: % Enzyme Activity (relative to DMSO controls)
Description: as §1

[14] = molecular target: 363 human kinases (including Aurora A/B/C) (Homo sapiens, UniProt Q05655); details: PKCd; for remaining activity at 0.1 µM: 100 nM; for remaining activity at 0.1 µM / remaining activity at 0.5 µM: read-out: % Enzyme Activity (relative to DMSO controls)
Description: as §1

[15] = molecular target: 363 human kinases (including Aurora A/B/C) (Homo sapiens, UniProt Q6DT37); details: DMPK2, [ATP] 2.5 µM; for remaining activity at 0.1 µM: 100 nM; for remaining activity at 0.1 µM / remaining activity at 0.5 µM: read-out: % Enzyme Activity (relative to DMSO controls)
Description: as §1

363 human kinases (including Aurora A/B/C) (Homo sapiens, UniProt P09769), sequence (P09769 whole entry): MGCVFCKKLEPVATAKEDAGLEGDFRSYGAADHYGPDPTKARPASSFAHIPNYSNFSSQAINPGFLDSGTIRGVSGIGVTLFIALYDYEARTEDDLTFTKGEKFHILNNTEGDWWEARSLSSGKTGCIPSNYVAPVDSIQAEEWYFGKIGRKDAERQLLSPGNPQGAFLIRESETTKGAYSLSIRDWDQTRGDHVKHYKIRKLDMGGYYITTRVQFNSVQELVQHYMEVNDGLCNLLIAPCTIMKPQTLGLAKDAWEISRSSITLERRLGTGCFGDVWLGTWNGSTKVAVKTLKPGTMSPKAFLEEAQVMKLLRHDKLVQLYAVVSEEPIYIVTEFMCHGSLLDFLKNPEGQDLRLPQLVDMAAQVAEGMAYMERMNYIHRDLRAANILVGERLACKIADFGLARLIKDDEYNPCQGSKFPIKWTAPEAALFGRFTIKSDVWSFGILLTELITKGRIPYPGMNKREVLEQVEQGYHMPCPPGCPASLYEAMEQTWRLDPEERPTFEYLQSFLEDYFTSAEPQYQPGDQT
363 human kinases (including Aurora A/B/C) (Homo sapiens, UniProt P17948), sequence (P17948 27-1338): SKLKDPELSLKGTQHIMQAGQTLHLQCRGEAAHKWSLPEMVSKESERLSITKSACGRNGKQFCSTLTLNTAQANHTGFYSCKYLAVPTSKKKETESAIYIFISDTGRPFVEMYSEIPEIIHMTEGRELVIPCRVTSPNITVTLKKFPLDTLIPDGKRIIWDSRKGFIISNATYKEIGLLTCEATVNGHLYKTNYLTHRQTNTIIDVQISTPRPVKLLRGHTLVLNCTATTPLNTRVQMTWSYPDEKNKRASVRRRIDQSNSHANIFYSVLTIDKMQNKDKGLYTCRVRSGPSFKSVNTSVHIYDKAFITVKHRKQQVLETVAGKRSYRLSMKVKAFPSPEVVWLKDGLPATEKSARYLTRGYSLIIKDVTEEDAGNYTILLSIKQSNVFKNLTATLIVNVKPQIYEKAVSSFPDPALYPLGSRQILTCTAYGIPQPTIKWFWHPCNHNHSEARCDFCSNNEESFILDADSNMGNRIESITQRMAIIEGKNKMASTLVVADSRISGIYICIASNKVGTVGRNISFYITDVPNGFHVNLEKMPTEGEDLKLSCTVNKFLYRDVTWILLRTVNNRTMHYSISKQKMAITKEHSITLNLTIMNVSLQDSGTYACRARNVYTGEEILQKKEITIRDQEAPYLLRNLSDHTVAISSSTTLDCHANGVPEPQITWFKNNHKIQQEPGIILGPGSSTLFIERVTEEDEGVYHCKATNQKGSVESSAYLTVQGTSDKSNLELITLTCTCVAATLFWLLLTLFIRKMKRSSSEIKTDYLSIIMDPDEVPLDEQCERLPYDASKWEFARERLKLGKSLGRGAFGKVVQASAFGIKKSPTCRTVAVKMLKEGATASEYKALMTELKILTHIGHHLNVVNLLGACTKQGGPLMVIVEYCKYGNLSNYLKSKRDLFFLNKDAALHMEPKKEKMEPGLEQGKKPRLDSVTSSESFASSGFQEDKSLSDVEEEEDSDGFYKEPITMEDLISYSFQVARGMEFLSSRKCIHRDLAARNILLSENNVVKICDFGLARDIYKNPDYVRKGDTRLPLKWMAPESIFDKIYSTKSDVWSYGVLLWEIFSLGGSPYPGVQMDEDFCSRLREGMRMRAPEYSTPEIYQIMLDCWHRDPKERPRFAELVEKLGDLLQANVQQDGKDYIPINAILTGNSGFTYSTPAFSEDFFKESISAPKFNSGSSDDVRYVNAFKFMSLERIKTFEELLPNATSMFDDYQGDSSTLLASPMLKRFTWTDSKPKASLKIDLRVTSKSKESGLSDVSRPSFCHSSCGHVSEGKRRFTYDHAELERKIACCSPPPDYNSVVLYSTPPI
363 human kinases (including Aurora A/B/C) (Homo sapiens, UniProt P36894), sequence (P36894 24-532): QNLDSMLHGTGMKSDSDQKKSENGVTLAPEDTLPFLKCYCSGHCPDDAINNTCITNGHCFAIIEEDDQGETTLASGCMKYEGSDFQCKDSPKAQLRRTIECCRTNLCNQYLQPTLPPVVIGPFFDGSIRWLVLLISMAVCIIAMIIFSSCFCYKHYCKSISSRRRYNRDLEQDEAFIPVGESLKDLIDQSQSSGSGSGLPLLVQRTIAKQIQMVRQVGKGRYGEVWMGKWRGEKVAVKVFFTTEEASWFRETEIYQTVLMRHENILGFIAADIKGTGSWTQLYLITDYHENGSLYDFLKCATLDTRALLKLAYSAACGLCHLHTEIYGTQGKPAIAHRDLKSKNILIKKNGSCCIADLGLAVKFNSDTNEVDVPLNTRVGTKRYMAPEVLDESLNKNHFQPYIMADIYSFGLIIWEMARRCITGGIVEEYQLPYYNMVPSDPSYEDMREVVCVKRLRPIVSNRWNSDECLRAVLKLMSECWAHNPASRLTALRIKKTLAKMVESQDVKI
363 human kinases (including Aurora A/B/C) (Homo sapiens, UniProt Q9Y463), sequence (Q9Y463 whole entry): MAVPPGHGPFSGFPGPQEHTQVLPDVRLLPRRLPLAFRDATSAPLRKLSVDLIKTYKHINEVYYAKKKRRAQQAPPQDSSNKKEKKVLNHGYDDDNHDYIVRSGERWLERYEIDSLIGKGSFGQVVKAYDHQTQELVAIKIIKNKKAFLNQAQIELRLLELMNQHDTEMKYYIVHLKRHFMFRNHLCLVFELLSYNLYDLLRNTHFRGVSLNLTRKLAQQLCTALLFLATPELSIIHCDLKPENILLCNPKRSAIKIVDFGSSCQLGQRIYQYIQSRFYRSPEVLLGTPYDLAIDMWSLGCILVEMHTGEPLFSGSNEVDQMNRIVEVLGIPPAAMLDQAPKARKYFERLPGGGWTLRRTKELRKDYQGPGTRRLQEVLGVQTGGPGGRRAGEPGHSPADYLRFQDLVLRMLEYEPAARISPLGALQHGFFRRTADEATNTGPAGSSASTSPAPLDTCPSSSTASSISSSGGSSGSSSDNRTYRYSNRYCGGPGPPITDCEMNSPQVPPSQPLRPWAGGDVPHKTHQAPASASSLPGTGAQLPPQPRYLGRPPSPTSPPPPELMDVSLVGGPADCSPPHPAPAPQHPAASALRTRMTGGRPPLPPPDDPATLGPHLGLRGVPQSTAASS
363 human kinases (including Aurora A/B/C) (Homo sapiens, UniProt Q9UIK4), sequence (Q9UIK4 whole entry): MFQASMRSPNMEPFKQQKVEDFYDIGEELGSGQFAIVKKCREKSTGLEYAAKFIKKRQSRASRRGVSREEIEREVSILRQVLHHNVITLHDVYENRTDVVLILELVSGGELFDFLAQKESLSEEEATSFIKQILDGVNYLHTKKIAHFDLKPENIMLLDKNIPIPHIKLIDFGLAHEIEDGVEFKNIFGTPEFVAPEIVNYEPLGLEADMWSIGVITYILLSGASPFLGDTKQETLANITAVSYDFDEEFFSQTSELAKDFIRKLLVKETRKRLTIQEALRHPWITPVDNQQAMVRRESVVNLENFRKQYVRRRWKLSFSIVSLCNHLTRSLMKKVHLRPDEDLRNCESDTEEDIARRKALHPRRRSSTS
363 human kinases (including Aurora A/B/C) (Homo sapiens, UniProt Q05655), sequence (Q05655 whole entry): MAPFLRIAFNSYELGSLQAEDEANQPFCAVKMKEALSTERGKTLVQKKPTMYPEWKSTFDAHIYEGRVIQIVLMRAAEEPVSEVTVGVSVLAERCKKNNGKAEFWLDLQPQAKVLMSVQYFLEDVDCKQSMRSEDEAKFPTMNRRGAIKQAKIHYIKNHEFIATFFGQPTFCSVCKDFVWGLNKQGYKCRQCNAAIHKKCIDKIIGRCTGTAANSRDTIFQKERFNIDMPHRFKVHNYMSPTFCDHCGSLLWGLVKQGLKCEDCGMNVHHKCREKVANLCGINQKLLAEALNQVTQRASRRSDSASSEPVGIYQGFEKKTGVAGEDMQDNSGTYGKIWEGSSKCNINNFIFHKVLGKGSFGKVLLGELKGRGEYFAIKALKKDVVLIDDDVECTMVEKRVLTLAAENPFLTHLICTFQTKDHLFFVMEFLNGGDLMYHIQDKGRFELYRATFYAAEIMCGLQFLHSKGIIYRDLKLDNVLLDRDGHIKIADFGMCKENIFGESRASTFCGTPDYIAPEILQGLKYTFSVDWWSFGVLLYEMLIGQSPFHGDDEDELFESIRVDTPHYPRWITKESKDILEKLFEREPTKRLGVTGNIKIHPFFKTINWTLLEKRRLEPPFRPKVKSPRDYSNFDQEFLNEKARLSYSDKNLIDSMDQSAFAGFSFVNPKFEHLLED
363 human kinases (including Aurora A/B/C) (Homo sapiens, UniProt Q13882), sequence (Q13882 whole entry): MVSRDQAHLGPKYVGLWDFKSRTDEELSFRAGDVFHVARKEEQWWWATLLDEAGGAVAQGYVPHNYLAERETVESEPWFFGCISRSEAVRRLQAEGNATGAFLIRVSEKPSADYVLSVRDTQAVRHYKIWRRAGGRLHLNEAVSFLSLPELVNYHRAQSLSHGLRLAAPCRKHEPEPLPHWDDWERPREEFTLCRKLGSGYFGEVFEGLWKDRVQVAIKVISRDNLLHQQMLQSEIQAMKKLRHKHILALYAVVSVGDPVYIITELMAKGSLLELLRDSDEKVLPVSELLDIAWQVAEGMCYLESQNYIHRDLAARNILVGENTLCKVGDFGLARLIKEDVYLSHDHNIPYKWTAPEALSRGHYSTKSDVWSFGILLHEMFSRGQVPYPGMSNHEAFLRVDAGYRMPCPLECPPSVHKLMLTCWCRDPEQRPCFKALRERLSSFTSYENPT
363 human kinases (including Aurora A/B/C) (Homo sapiens, UniProt Q9Y243), sequence (Q9Y243 whole entry): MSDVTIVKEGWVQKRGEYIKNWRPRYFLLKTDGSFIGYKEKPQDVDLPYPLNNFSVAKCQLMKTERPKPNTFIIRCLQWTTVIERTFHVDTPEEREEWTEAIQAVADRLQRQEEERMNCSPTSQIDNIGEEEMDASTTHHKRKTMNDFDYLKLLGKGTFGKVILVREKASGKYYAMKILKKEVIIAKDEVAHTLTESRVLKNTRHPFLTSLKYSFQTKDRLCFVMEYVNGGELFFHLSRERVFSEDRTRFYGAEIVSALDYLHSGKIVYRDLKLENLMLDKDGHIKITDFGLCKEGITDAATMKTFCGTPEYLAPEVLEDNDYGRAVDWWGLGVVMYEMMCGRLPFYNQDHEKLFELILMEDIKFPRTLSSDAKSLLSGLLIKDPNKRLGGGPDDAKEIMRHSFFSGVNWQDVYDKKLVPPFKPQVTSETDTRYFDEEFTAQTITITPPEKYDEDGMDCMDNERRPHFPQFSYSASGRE

CCn1cc(-c2ccnc3[nH]c(-c4cccc(CN(C)C)c4)cc23)c(-c2ccc(NC(=O)N(C)C)cc2)n1 [GSK1070916]
remaining activity at 0.1 µM [1]: 96.8% | remaining activity at 0.1 µM [2]: 93.8% | remaining activity at 0.1 µM [3]: 97.8% | remaining activity at 0.1 µM [4]: 76.6% | remaining activity at 0.1 µM [5]: 87.6% | remaining activity at 0.1 µM [6]: 94.8% | remaining activity at 0.1 µM [7]: 99.9% | remaining activity at 0.1 µM [8]: 111% | remaining activity at 0.1 µM [9]: 97.8% | remaining activity at 0.1 µM [10]: 39.1% | remaining activity at 0.1 µM [11]: 92% | remaining activity at 0.1 µM [12]: 99.6% | remaining activity at 0.1 µM [13]: 64.4% | remaining activity at 0.1 µM [14]: 201% | remaining activity at 0.1 µM [15]: 89.4%

O=C(c1cccc(Cl)c1F)N1CCN(Cc2cccc(Nc3nccs3)n2)CC1 [MK-8745]
% Enzyme Activity (relative to DMSO controls) ([1]; 500 nM): 99.25% | remaining activity at 0.5 µM ([1]; 500 nM): 101% | % Enzyme Activity (relative to DMSO controls) ([2]; 500 nM): 93.40% | remaining activity at 0.5 µM ([2]; 500 nM): 94.4% | % Enzyme Activity (relative to DMSO controls) ([3]; 500 nM): 89.30% | remaining activity at 0.5 µM ([3]; 500 nM): 91.1% | % Enzyme Activity (relative to DMSO controls) ([4]; 500 nM): 29.01% | remaining activity at 0.5 µM ([4]; 500 nM): 29% | % Enzyme Activity (relative to DMSO controls) ([5]; 500 nM): 83.31% | remaining activity at 0.5 µM ([5]; 500 nM): 84.6% | % Enzyme Activity (relative to DMSO controls) ([6]; 500 nM): 98.52% | remaining activity at 0.5 µM ([6]; 500 nM): 98.6% | % Enzyme Activity (relative to DMSO controls) ([7]; 500 nM): 92.01% | remaining activity at 0.5 µM ([7]; 500 nM): 103% | % Enzyme Activity (relative to DMSO controls) ([8]; 500 nM): 102.56% | remaining activity at 0.5 µM ([8]; 500 nM): 105% | % Enzyme Activity (relative to DMSO controls) ([9]; 500 nM): 35.97% | remaining activity at 0.5 µM ([9]; 500 nM): 36.3% | % Enzyme Activity (relative to DMSO controls) ([10]; 500 nM): 96.47% | remaining activity at 0.5 µM ([10]; 500 nM): 98.2% | % Enzyme Activity (relative to DMSO controls) ([11]; 500 nM): 85.09% | remaining activity at 0.5 µM ([11]; 500 nM): 86.1% | % Enzyme Activity (relative to DMSO controls) ([12]; 500 nM): 94.80% | remaining activity at 0.5 µM ([12]; 500 nM): 95.3% | % Enzyme Activity (relative to DMSO controls) ([13]; 500 nM): 90.99% | remaining activity at 0.5 µM ([13]; 500 nM): 93.4% | % Enzyme Activity (relative to DMSO controls) ([14]; 500 nM): 130.26% | remaining activity at 0.5 µM ([14]; 500 nM): 141% | % Enzyme Activity (relative to DMSO controls) ([15]; 500 nM): 124.49% | remaining activity at 0.5 µM ([15]; 500 nM): 126%

O=C(O)[C@]1(Cc2cccc(Nc3nccs3)n2)CC[C@@H](Oc2cccc(Cl)c2F)CC1 [MK-5108]
remaining activity at 0.1 µM [1]: 96.9% | remaining activity at 0.5 µM ([1]; 500 nM): 69% | remaining activity at 0.1 µM [2]: 89.6% | remaining activity at 0.5 µM ([2]; 500 nM): 62.1% | remaining activity at 0.1 µM [3]: 98.3% | remaining activity at 0.5 µM ([3]; 500 nM): 80.5% | remaining activity at 0.1 µM [4]: 20.2% | remaining activity at 0.5 µM ([4]; 500 nM): 3.11% | remaining activity at 0.1 µM [5]: 64.3% | remaining activity at 0.5 µM ([5]; 500 nM): 49.6% | remaining activity at 0.1 µM [6]: 97.4% | remaining activity at 0.5 µM ([6]; 500 nM): 99.1% | remaining activity at 0.1 µM [7]: 107% | remaining activity at 0.5 µM ([7]; 500 nM): 78.1% | remaining activity at 0.1 µM [8]: 103% | remaining activity at 0.5 µM ([8]; 500 nM): 111% | remaining activity at 0.1 µM [9]: 22.9% | remaining activity at 0.5 µM ([9]; 500 nM): 6.36% | remaining activity at 0.1 µM [10]: 37.9% | remaining activity at 0.5 µM ([10]; 500 nM): 9.27% | remaining activity at 0.1 µM [11]: 88.7% | remaining activity at 0.5 µM ([11]; 500 nM): 67.9% | remaining activity at 0.1 µM [12]: 91.7% | remaining activity at 0.5 µM ([12]; 500 nM): 68.3% | remaining activity at 0.1 µM [13]: 58.4% | remaining activity at 0.5 µM ([13]; 500 nM): 29.5% | remaining activity at 0.1 µM [14]: 97.8% | remaining activity at 0.5 µM ([14]; 500 nM): 201% | remaining activity at 0.1 µM [15]: 98.7% | remaining activity at 0.5 µM ([15]; 500 nM): 140%
